Assay results published in US20250120967A1, “TYROSINE KINASES INHIBITORS AND USES THEREOF” (GREAT NOVEL THERAPEUTICS BIOTECH & MEDICALS CORPORATION, priority 2023, published 2025).
Where two headings read alike, the source gives them in different places.

Experiments:
[1] = biological target: RET (Homo sapiens, UniProt P07949); assay: Tyrosine kinase inhibition assay; format: biochemical; details: for inhibition at 1 µM: single concentration 1.0 μM, read-out: percent inhibition
Protocol: (§1) Tyrosine kinase inhibition assays were performed at ThermoFisher Life Technologies (Madison, WI, USA) using standard protocols (SelectScreen Biochemical Profiling Service, Thermo Fisher Scientific). ATP concentrations used were at the apparent Km. Test compounds were screened in 1% dimethylsulffoxide (DMSO) (final concentration) in the well. For 10-point titrations, 3-fold serial dilutions were conducted from the starting concentration of […]. All Peptide/Kinase Mixtures were diluted to a 2× working concentration in the appropriate Kinase Buffer. All ATP Solutions were diluted to a 4× working concentration in Kinase Buffer (50 mM HEPES pH 7.5, 0.01% BRIJ-35, 10 mM MgCl2, 1 mM EGTA). The apparent ATP Km was previously determined using a Z′-LYTE assay. The Development Reagent was diluted in Development Buffer.
(§2) The inhibition activities of compounds were determined in biochemical assays using single concentration (1.0 μM) measurements. The results were provided as percent inhibition values.

[2] = biological target: FRK (PTK5) (Homo sapiens, UniProt P42685); assay: Tyrosine kinase inhibition assay; format: biochemical; details: for IC50: read-out: IC50 of compound; for inhibition at 1 µM: single concentration 1.0 μM, read-out: percent inhibition
Protocol: as §1, §2

[3] = tested on: CT-26 cells; assay: In vitro cytotoxicity assay (MTT, 72 h); format: cell-based, murine; details: Mus musculus, CT26, growth inhibition
Protocol: Six different cell lines were used, including human breast cancer cell lines MDA-MB-231 (6×10^3) and MDA-MB-453 (2.4×10^4), human colorectal cell line SW48 (2.4×10^4), human breast epithelial cell line M10 (6×10^3), human cancer cell line A549 (1.4×10^3), and murine colorectal carcinoma tumors CT26 (6×10^3), which were seeded in a 96-well plate. […] After 72 h, MTT assay (Cayman™) was used to determine the cellular viability.

[4] = biological target: LYN B (Homo sapiens, UniProt P07948); assay: Tyrosine kinase inhibition assay; format: biochemical; details: for inhibition at 1 µM: single concentration 1.0 μM, read-out: percent inhibition
Protocol: as §1
(§3) The inhibition activities of compounds were determined in biochemical assays using single concentration (1.0 μM) measurements. The results were provided as percent inhibition values. A compound displaying a percent inhibition value of greater 80% was defined as a hit. 99 different tyrosine kinases were used.

[5] = biological target: INSRR (IRR) (Homo sapiens, UniProt P14616); assay: Tyrosine kinase inhibition assay; format: biochemical; details: for IC50: read-out: IC50 of compound; for inhibition at 1 µM: single concentration 1.0 μM, read-out: percent inhibition
Protocol: as §1, §3

[6] = biological target: LCK (Homo sapiens, UniProt P06239); assay: Tyrosine kinase inhibition assay; format: biochemical; details: for IC50: read-out: IC50 of compound; for inhibition at 1 µM: single concentration 1.0 μM, read-out: percent inhibition
Protocol: as §1, §3

[7] = biological target: ROS1 (Homo sapiens, UniProt P08922); assay: Tyrosine kinase inhibition assay; format: biochemical; details: for IC50: read-out: IC50 of compound; for inhibition at 1 µM: single concentration 1.0 μM, read-out: percent inhibition
Protocol: as §1, §3

[8] = biological target: FLT4 (VEGFR3) (Homo sapiens, UniProt P35916); assay: Tyrosine kinase inhibition assay; format: biochemical; details: for IC50: read-out: IC50 of compound; for inhibition at 1 µM: single concentration 1.0 μM, read-out: percent inhibition
Protocol: as §1, §3

[9] = biological target: EPHA2 (Homo sapiens, UniProt P29317); assay: Tyrosine kinase inhibition assay; format: biochemical; details: for IC50: read-out: IC50 of compound; for inhibition at 1 µM: single concentration 1.0 μM, read-out: percent inhibition
Protocol: as §1, §3

[10] = biological target: BTK (Homo sapiens, UniProt Q06187); assay: Tyrosine kinase inhibition assay; format: biochemical; details: for IC50: read-out: IC50 of compound; for inhibition at 1 µM: single concentration 1.0 μM, read-out: percent inhibition
Protocol: as §1, §3

[11] = biological target: PDGFRA (PDGFR alpha) (Homo sapiens, UniProt P16234); assay: Tyrosine kinase inhibition assay; format: biochemical; details: for IC50: read-out: IC50 of compound; for inhibition at 1 µM: single concentration 1.0 μM, read-out: percent inhibition
Protocol: as §1, §3

[12] = biological target: FER (Homo sapiens, UniProt P16591); assay: Tyrosine kinase inhibition assay; format: biochemical; details: for IC50: read-out: IC50 of compound; for inhibition at 1 µM: single concentration 1.0 μM, read-out: percent inhibition
Protocol: as §1, §3

[13] = biological target: HCK (Homo sapiens, UniProt P08631); assay: Tyrosine kinase inhibition assay; format: biochemical; details: for IC50: read-out: IC50 of compound; for inhibition at 1 µM: single concentration 1.0 μM, read-out: percent inhibition
Protocol: as §1, §3

[14] = biological target: FGR (Homo sapiens, UniProt P09769); assay: Tyrosine kinase inhibition assay; format: biochemical; details: for IC50: read-out: IC50 of compound; for inhibition at 1 µM: single concentration 1.0 μM, read-out: percent inhibition
Protocol: as §1, §3

[15] = biological target: SRC (Homo sapiens, UniProt P12931); assay: Tyrosine kinase inhibition assay; format: biochemical; details: for IC50: read-out: IC50 of compound; for inhibition at 1 µM: single concentration 1.0 μM, read-out: percent inhibition
Protocol: as §1, §3

[16] = biological target: LYN A (Homo sapiens, UniProt P07948); assay: Tyrosine kinase inhibition assay; format: biochemical; details: for IC50: read-out: IC50 of compound; for inhibition at 1 µM: single concentration 1.0 μM, read-out: percent inhibition
Protocol: as §1, §3

[17] = biological target: NTRK2 (TRKB) (Homo sapiens, UniProt Q16620); assay: Tyrosine kinase inhibition assay; format: biochemical; details: for inhibition at 1 µM: single concentration 1.0 μM, read-out: percent inhibition
Protocol: as §1, §3

[18] = biological target: EGFR (ErbB1) (Homo sapiens, UniProt P00533); assay: Tyrosine kinase inhibition assay; format: biochemical; details: single concentration 1.0 μM, read-out: percent inhibition
Protocol: as §1
(§4) The inhibition activities of compounds were determined in biochemical assays using single concentration (1.0 μM) measurements. The results were provided as percent inhibition values. […] 99 different tyrosine kinases were used.

[19] = biological target: FLT1 (VEGFR1) (Homo sapiens, UniProt P17948); assay: Tyrosine kinase inhibition assay; format: biochemical; details: single concentration 1.0 μM, read-out: percent inhibition
Protocol: as §1, §4

[20] = biological target: ABL1 (Homo sapiens, UniProt P00519); assay: Tyrosine kinase inhibition assay; format: biochemical; details: single concentration 1.0 μM, read-out: percent inhibition
Protocol: as §1, §4

[21] = biological target: PTK2 (FAK) (Homo sapiens, UniProt Q05397); assay: Tyrosine kinase inhibition assay; format: biochemical; details: single concentration 1.0 μM, read-out: percent inhibition
Protocol: as §1, §4

[22] = LYN B, read-out: IC50 of compound
[23] = NTRK2 (TRKB), read-out: IC50 of compound

Chain of PTK2 (FAK) (Q05397 whole entry): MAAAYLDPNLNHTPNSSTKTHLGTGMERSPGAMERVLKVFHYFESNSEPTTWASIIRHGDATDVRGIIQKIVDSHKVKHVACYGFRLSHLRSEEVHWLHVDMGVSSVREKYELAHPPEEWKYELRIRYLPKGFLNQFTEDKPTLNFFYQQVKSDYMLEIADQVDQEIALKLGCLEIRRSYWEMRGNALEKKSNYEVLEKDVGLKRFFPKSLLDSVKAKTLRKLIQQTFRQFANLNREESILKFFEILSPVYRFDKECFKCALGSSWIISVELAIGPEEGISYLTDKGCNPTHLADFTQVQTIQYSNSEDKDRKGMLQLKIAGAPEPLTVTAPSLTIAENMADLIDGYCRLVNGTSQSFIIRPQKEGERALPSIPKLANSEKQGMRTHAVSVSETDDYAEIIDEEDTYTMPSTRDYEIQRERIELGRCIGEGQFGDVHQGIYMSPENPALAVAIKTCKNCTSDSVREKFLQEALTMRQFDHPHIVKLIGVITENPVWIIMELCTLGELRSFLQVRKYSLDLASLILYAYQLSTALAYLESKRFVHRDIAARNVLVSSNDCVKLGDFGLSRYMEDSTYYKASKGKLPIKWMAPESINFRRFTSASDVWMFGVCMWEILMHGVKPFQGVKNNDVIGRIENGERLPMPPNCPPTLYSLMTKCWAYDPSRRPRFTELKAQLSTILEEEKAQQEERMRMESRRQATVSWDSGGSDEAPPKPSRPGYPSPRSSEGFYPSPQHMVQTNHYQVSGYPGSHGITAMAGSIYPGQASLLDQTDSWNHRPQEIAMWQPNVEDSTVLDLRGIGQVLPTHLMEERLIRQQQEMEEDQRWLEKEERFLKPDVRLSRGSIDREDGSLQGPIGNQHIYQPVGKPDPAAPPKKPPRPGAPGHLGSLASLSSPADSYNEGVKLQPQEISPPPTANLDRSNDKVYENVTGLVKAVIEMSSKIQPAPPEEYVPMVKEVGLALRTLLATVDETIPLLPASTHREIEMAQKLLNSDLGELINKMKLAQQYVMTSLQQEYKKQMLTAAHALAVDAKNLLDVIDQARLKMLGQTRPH
Chain of LYN A (P07948 whole entry): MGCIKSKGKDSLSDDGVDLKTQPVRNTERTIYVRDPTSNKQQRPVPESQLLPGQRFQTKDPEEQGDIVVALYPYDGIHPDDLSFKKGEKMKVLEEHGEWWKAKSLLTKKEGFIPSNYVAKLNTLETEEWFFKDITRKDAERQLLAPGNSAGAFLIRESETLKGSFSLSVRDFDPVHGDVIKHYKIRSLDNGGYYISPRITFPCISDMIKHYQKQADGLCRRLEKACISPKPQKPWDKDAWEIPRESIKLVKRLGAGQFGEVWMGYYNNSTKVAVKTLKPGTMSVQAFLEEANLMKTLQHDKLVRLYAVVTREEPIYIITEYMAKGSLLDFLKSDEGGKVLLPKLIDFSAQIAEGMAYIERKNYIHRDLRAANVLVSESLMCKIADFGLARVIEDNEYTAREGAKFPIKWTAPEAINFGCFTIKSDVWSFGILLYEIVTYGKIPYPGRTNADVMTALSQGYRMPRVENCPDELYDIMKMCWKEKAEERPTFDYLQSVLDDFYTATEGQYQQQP
Chain of ROS1 (P08922 28-2347): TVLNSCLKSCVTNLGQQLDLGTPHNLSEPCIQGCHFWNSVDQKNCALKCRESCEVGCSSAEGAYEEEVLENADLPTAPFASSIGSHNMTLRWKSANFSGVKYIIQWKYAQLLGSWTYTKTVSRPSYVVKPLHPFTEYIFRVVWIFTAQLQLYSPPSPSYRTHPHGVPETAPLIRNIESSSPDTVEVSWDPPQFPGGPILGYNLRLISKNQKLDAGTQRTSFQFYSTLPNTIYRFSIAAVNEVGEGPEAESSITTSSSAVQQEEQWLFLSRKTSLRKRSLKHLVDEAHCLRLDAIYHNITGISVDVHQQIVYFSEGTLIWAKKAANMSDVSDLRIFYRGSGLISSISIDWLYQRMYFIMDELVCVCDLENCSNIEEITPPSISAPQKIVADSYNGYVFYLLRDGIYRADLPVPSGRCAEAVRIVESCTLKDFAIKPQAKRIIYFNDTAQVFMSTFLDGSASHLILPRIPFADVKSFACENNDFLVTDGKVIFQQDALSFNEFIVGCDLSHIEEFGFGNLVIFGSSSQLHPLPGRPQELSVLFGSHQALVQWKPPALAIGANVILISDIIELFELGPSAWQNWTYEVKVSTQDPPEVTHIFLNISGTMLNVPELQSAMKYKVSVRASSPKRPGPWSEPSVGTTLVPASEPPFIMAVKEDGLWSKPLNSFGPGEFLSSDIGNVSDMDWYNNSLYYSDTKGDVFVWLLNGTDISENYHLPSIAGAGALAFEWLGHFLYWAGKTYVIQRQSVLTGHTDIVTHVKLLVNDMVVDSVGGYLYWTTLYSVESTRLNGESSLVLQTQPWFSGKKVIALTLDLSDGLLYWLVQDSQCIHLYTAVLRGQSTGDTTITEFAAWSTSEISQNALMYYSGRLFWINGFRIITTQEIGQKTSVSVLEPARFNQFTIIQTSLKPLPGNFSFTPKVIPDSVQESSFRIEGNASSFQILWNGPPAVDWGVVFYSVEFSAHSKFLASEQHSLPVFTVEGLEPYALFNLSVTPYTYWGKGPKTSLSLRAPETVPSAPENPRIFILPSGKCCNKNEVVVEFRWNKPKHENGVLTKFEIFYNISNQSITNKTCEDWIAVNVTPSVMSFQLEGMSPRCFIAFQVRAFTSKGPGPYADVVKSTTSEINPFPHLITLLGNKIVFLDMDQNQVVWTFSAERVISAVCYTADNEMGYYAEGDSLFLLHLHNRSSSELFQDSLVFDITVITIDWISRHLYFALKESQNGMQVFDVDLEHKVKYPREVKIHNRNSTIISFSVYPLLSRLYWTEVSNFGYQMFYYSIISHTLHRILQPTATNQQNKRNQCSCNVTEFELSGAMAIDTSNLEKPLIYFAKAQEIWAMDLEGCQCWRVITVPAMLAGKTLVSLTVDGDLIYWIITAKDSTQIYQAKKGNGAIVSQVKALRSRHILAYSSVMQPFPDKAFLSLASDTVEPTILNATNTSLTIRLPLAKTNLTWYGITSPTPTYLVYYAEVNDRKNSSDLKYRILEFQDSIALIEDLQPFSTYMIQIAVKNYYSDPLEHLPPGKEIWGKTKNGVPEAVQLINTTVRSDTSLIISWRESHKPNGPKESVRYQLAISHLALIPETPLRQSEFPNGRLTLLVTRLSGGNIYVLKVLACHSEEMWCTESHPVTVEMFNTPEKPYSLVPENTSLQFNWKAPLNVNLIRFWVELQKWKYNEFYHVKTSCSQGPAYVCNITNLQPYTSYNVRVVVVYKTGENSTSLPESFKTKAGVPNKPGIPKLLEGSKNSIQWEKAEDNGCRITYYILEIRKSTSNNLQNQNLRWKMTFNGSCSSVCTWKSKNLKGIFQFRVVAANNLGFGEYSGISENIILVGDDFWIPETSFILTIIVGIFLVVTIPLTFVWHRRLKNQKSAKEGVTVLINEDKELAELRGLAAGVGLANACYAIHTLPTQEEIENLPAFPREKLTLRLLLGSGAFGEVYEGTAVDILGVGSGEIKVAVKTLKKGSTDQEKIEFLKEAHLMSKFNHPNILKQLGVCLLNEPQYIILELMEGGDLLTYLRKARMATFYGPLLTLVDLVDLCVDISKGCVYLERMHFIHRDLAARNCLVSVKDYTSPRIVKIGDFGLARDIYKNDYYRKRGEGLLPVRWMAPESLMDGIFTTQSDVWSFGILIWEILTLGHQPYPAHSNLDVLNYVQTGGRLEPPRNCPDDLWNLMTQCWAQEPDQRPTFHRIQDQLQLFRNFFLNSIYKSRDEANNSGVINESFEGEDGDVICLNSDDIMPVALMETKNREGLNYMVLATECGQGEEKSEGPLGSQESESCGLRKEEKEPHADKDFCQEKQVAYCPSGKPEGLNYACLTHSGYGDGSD
Chain of SRC (P12931 whole entry): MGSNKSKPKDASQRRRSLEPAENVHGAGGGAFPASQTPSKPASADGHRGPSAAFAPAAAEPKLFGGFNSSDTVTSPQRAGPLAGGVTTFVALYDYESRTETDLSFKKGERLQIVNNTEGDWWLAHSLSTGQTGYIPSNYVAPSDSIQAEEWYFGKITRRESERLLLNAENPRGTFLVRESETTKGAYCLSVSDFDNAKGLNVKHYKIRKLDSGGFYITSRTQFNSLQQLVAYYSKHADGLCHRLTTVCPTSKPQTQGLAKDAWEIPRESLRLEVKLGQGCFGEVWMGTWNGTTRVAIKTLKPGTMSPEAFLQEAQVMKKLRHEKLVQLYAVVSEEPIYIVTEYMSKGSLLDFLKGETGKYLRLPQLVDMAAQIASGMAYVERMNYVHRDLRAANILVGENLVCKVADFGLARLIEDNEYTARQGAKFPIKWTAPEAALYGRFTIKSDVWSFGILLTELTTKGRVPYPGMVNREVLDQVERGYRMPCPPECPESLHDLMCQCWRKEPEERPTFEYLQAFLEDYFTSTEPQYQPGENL
Chain of LYN B (P07948 1-491 isoform P07948-2): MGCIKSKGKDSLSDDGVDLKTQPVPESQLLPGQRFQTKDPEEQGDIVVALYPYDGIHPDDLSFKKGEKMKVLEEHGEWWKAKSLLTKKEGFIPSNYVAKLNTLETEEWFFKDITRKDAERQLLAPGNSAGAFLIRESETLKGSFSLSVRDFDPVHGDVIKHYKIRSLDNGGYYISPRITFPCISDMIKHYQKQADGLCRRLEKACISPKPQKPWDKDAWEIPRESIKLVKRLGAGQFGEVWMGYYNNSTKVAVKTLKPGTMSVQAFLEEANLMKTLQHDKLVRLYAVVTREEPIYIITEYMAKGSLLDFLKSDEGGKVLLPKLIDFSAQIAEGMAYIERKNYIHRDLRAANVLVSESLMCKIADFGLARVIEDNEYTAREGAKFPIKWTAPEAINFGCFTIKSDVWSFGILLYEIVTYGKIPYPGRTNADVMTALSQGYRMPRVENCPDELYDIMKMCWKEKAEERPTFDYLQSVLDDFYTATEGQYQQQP

SMILES | IC50 [3] | IC50 [5] | inhibition at 1 µM [1] | inhibition at 1 µM [2] | inhibition at 1 µM ([4]; LYN B) | inhibition at 1 µM [5] | inhibition at 1 µM [6] | inhibition at 1 µM [7] | inhibition at 1 µM [8] | inhibition at 1 µM [9] | inhibition at 1 µM [10] | inhibition at 1 µM [11] | inhibition at 1 µM [12] | inhibition at 1 µM [13] | inhibition at 1 µM [14] | inhibition at 1 µM [15] | inhibition at 1 µM [16] | inhibition at 1 µM ([17]; NTRK2 (TRKB)) | inhibition at 1 µM [18] | inhibition at 1 µM [19] | further results
CNC(=O)c1cc2c(Oc3ccc(NC(=O)C4(C(=O)Nc5ccc(F)cc5)CC4)cc3)ccnc2cc1OC [Zanzalintinib, reference compound] | 22.1 ± 0.29 µM | 302 nM | – | – | – | – | – | – | – | – | – | – | – | – | – | – | – | – | – | – | IC50 ([1]; read-out: IC50 of compound): 22.5 nM; IC50 [2]: 10.3 nM; IC50 [4, 22]: 30.7 nM; IC50 [6]: 7.07 nM; IC50 [7]: 71.4 nM; IC50 [8]: 21.7 nM; IC50 [9]: 52.2 nM; IC50 [10]: 111 nM; IC50 [11]: 93.9 nM; IC50 [12]: 266 nM; IC50 [13]: 59 nM; IC50 [14]: 35.4 nM; IC50 [15]: 45.1 nM; IC50 [16]: 70.9 nM; IC50 [17, 23]: 112 nM
COc1cc2nccc(Oc3ccc(NC(=O)C4(C(=O)Nc5ccc(F)cc5)CC4)cc3)c2cc1OC [Cabozantinib, reference compound] | 19.6 ± 4.3 µM | 386 nM | 98% | 99% | 91% | 38% | 95% | 87% | 95% | 95% | 82% | 92% | 89% | 90% | 97% | 89% | 92% | 95% | 32% | 67% | IC50 [4]: 67.7 nM; IC50 [6]: 38.1 nM; IC50 [7]: 60.6 nM; IC50 [8]: 30.3 nM; IC50 [9]: 37.7 nM; IC50 [10]: 172 nM; IC50 [11]: 84.1 nM; IC50 [12]: 424 nM; IC50 [13]: 111 nM; IC50 [14]: 88.8 nM; IC50 [15]: 141 nM; IC50 [16]: 217 nM; IC50 [17]: 53.3 nM
COc1cc2nccc(Oc3ccc(NC(=O)C4(C(=O)Nc5ccc(F)cc5)CC4)cc3F)c2cc1Oc1ccc(N)cc1F [Cbo-23] | 5.18 ± 1.73 µM | 53.4 nM | 101% | 99% | 96% | 97% | 99% | 100% | 99% | 102% | 101% | 95% | 101% | 99% | 97% | 94% | 92% | 112% | 58% | 76% | IC50 [2]: 27 nM; IC50 [4, 22]: 18.8 nM; IC50 [6]: 15.9 nM; IC50 [7]: 5.87 nM; IC50 [8]: 20.8 nM; IC50 [9]: 20.9 nM; IC50 [10]: 9.01 nM; IC50 [11]: 36.9 nM; IC50 [12]: 24.7 nM; IC50 [13]: 21.4 nM; IC50 [14]: 25.3 nM; IC50 [15]: 32.1 nM; IC50 [16]: 53.1 nM; IC50 [17, 23]: 14.8 nM; inhibition at 1 µM [20]: 58%; inhibition at 1 µM [21]: 66%
COc1cc2nccc(Oc3ccc(NC(=O)C4(NC(=O)c5ccc(F)cc5)CC4)cc3F)c2cc1Oc1ccc(N)cc1F [Cbo-10] | 5.01 ± 0.16 µM | – | 79% | 91% | 86% | 93% | 96% | 95% | 92% | 56% | 102% | 84% | 97% | 72% | 92% | 86% | 81% | 73% | 88% | 61% | inhibition at 1 µM [20]: 32%; inhibition at 1 µM [21]: 33%
COc1cc2nccc(Oc3ccc(NC(=O)C4(NC(=O)c5ccc(F)cc5)CC4)cc3F)c2cc1OC [Cbo-02, N-(1-((4-((6,7-diMethoxyquinolin-4-yl)oxy)-3-fluorophenyl)carbamoyl)cyclopropyl)-4-fluorobenzamide] | 8.2 ± 0.6 µM | – | 67% | 59% | 81% | 80% | 85% | 56% | 79% | 33% | 98% | 48% | 88% | 62% | 74% | 42% | 71% | 23% | 44% | 30% | inhibition at 1 µM [20]: 24%; inhibition at 1 µM [21]: 20%
